From patent US20260256812A1, “COMPOSITION COMPRISING A COMBINATION OF A CORTICOSTEROID AND A FLAVONOID FOR USE IN TREATING EYE-RELATED DISEASES” (priority 2023, published 2026)

Experiments:
ARPE-19 cells [1] = test: Cytotoxicity evaluation by acid phosphatase assay (APA); type: cell-based, human
Experimental: ARPE-19 (adult retinal pigment epithelium-19) cell line was cultured using cell culture media containing a 1:1 mixture of DMEM and F-12 nutrient mixture. The media was supplemented with 10% FBS and 1% penicillin-streptomycin antibiotic mixture. During the culture, cells were maintained at 37° C. with 5% CO2 in a humidified incubator and sub-cultured with trypsin upon confluency.
Cytotoxicity evaluation of the drugs, both individually and in combination, was performed using the acid phosphatase assay (APA). The cytotoxicity assay was performed on TA and QCN from 5 to 250 μM and 1 to 250 μM, respectively. After investigating individual drugs, drug combinations were tested as outlined in Table 1.
Initially ARPE-19 cells were seeded onto a 96-well plate at a seeding density of 5000 cells/well containing 100 μL of cell culture media and cultured for 24 hr. After 24 hr, treatments were added to the wells and incubated for the period of the study (24 h and 48 hr). After the treatment period, media was removed, and cells were washed twice with PBS. Upon washing, 100 μL of 10 mM PNPP substrate dissolved in 0.1 M sodium acetate buffer was added to the wells and incubated for 2 hr. Finally, 50 μL of stop solution (1 M sodium hydroxide) was added and the plate was analysed in the plate reader at 405 nm.

IL-6 = IL-6 ELISA on ARPE-19 cell supernatants; type: cell-based, human
Experimental: The human IL-6, IL-8, MCP-1, and VEGF-C ELISA kits were used according to the manufacturer's protocol to investigate the cytokine secretions in the cell supernatants. Cells were seeded onto a 24-well plate at a seeding density of 3×10^4 cells/well with 500 μL of cell culture media and cultured for 24 hr. Cells were kept overnight in low serum media (with 1% FBS) to synchronise their growth phase before stimulating inflammation. […] Upon stimulation, cells were exposed to various treatments of drugs alone and in combination for 24 hr. After the treatment duration media conditioned by treated cells were collected and analysed for the cytokines and VEGF-C secretions using the ELISA kits. ELISA was performed according to the manufacturer's protocol.

VEGF-C = test: Anti-VEGF activity, VEGF-C ELISA on LPS-stimulated ARPE-19 cells; type: cell-based, human
Experimental: The human IL-6, IL-8, MCP-1, and VEGF-C ELISA kits were used according to the manufacturer's protocol to investigate the cytokine secretions in the cell supernatants. Cells were seeded onto a 24-well plate at a seeding density of 3×10^4 cells/well with 500 μL of cell culture media and cultured for 24 hr. Cells were kept overnight in low serum media (with 1% FBS) to synchronise their growth phase before stimulating inflammation. After 24 hr cells were stimulated with 10 μg/mL LPS to induce inflammation for a duration of 24 hr. Upon stimulation, cells were exposed to various treatments of drugs alone and in combination for 24 hr. After the treatment duration media conditioned by treated cells were collected and analysed for the cytokines and VEGF-C secretions using the ELISA kits. ELISA was performed according to the manufacturer's protocol.

DPPH antioxidant assay = test: DPPH antioxidant assay
Experimental: The DPPH assay was performed in a 96-well plate where 20 μL of methanolic DPPH solution was added to 180 μL of methanolic solutions of treatments. Based on the outcome from anti-inflammatory studies, the higher concentrations of TA and QCN, both individually and in combination were investigated for antioxidant activity (TA 75, 100 μM and QCN 15, 20 μM). This reaction mixture was incubated for 30 min in darkness at room temperature and the absorbance was measured at 517 nm using a microplate reader.

[2] = test system: intracellular ROS in ARPE-19 cells; test: DCFH-DA intracellular ROS assay by flow cytometry; type: cell-based, human
Experimental: ARPE-19 cells were seeded onto 6-well plates at a seeding density of 25×10^4 cells/well and incubated for 24 hr. At the 24 hr time point cells were stimulated with stimulants to induce oxidative stress. […] Upon incubation with dye, cells were detached using trypsin and resuspended in PBS for analysis using flow cytometry.
Upon stimulation and treatment, the intracellular ROS levels were measured using flow cytometry to assess the anti-oxidant effect of the treatments. The oxidation of DCFH-DA to 2′-7′dichlorofluorescein (DCF) was used for the detection of intracellular ROS levels including nitrogen dioxide and hydroxyl radicals. The cells will take up the DCFH-DA dye where cellular esterase cleaves off the acetyl groups, resulting in the formation of DCFH (2′,7′-dichlorodihydrofluorescein). Oxidation of DCFH in the presence of intracellular ROS leads to the formation of DCF. This DCF fluorescent molecule can be detected using a flow cytometer by mean fluorescence intensity (MFI).

ARPE-19 cells [3] = test: Scratch (wound healing, cell migration) assay; type: cell-based, human; settings: QCN 20 μM; TA 100 μM; TA 100+QCN 20 μM; 1% FBS
Experimental: For the scratch or wound healing assay cells were seeded onto six-well plates with a seeding density of 25×10^4 cells/well. Upon reaching 80-90% confluency, a sterile 200 μL pipette tip was used to scrape the confluent monolayer of cells in a horizontal line. After creating the scratch, cell debris was washed with PBS and the cell culture media containing treatments was added to each well. The scratch was photographed using an Olympus EP50 microscope at 10× magnification at 0, 6, 9, 24, 27 and 30 h. “Image J” software was used to analyse the width of the scratch.
The major cause of irreversible vision loss is the exudative form of AMD, which is characterized by CNV where the newly formed blood vessels protrude from the choroid to the retina through Bruch's membrane. Even though the mechanism of CNV is not fully understood, some pathological studies point to the connection between CNV and sub-RPE deposits. Additionally, focal inflammation leads to focal thinning and damage of Bruch's membrane in patients of AMD. RPE cells are essential for the maintenance of photoreceptor cells as they provide nutrients. But the contact between RPE and photoreceptor cells was disrupted due to the accumulation of sub-RPE deposits and the interference of branched blood vessels. […] Upon seeding 25×10^4 cells/well and reaching around 90% confluency, the wounds were created and measured using image ‘J’ software. […]

[4] = 10 μg/mL LPS 24 hr, then 24 hr treatment
[5] = TA 10 to 250 μM, 24 hr and 48 hr

With `O=c1c(O)c(-c2ccc(O)c(O)c2)oc2cc(O)cc(O)c12` [QCN, quercetin] the cell viability (ARPE-19 cells [1]; QCN 1 to 20 μM) was “more than 90%”, the “effect on cells at higher concentrations” value (ARPE-19 cells [1]; QCN above 25 μM, up to 250 μM) was “toxic effects” and the cell viability (ARPE-19 cells [1]; QCN concentration up to 25 μM, 24 hr and 48 hr) was “more than 80%”. The “IL-6 expression compared to LPS stimulated cells” value (IL-6; [4]) was “decreased”, the “concentration showing maximum inhibition of IL-6 expression” value (IL-6; [4]) was 20 µM and the VEGF-C concentration (VEGF-C; QCN 20 μM, control LPS stimulated 1.96±2.05) was 0.83 ± 0.02 µg/mL. For the same molecule, the “expression of VEGF-C compared to LPS stimulated cells” value (VEGF-C; TA 75, 100 μM, QCN 15, 20 μM, individually and in combination) was “better suppression”, the “inhibition of DPPH” value (DPPH antioxidant assay; QCN 20 μM) was 66.71±0.61% and the “anti-oxidant effect on DPPH free radical” value (DPPH antioxidant assay; TA 75, 100 μM, QCN 15, 20 μM, 30 min) was “strong anti-oxidant effect”. For the same molecule, the “generated ROS (MFI) compared to control stimulated stained cells” value ([2]; 300 μM H2O2, TA 75, 100 μM, QCN 15, 20 μM, individually and in combination, 24 hr) was “significantly suppressed” and the “migration of the cells” value (ARPE-19 cells [3]) was “enhanced the migration”.
In the case of `OO` [H2O2, hydrogen peroxide], the “cell viability with stimulant” value (ARPE-19 cells [1]; H2O2 200 and 300 μM, up to 48 h) is reported as “decrease in cell viability” and the “MFI of stimulated stained cells” value ([2]; HP at 300 μM, unstimulated stained printed as 3.73±0.29, P value <0.05) is reported as 2.01±0.10.
In the case of lipopolysaccharide [LPS], the cytotoxicity of stimulant (ARPE-19 cells [1]; LPS 0.5 to 100 μg/mL, up to 48 h) is reported as “non-toxic” and the “IL-6 cytokine on stimulation” value (IL-6; LPS stimulation from 10 to 50 μg/mL) is reported as “consistently increased”.
With `CC1(C)O[C@@H]2C[C@H]3[C@@H]4CCC5=CC(=O)C=C[C@]5(C)[C@@]4(F)[C@@H](O)C[C@]3(C)[C@]2(C(=O)CO)O1` [TA, triamcinolone acetonide] the cell morphology (ARPE-19 cells [1]; [5]) was “no changes in cell morphology”, the viability of cells (ARPE-19 cells [1]; [5]) was “not affected” and the “concentration showing maximum inhibition of IL-6 expression” value (IL-6; [4]) was 100 µM.
